Earlier results in patent US20080038219A1, “Novel Composition for a Topical Skin Treatment Base and Medicated Applications Thereof” (CALGENEX CORPORATION, priority 2006, published 2008).

Tested on: mild-to-moderate acne
Settings: versus tretinoin 0.05%, benzoyl peroxide 5%, topical erythromycin 2%

O=C(O)CCCCCCCC(=O)O [azelaic acid]
efficacy in treatment of mild-to-moderate acne: efficacy comparable
